The results in this text go back to patent publication US6379665B1, “Phospholipase D polypeptide and DNA sequences” (Onyx Pharmaceuticals, Inc., priority 1996, dated 2002).

One assay deals with PLD1. In words: basic PLD assay with purified PLD1 and activators (headgroup-labeled phosphatidylcholine). It counts as biochemical, human. Further details: increase in maximal effect of PKC- on PLD1: dose or concentration left out as unconfirmed. Particulars: for stimulation of PLD1 activity by lipid: vesicles with 7% acidic lipid in PE/PS background; for lipid content giving maximal activation of PLD1: lipid fraction of vesicles. How it is done:
The basic PLD assay was performed as described in Hammond, J. Biol. Chem. 270: 29640-43 (1995) using headgroup-labeled phosphatidyl-choline. Lipids were prepared and labeled. Labeled choline was obtained from American Radiolabelled Chemicals Inc. (Catalog No. ART 284) and extracted with chloroform and methanol 100 ml chloroform/100 ml methanol/90 ml water (100,000 dpm/assay; 1.6 ml). The mixture was vortexed, spun and the bottom layer collected and added to the lipid mixture to give a final concentration of 67 mM PE (Avanti Polar Lipids, Alabaster, Ala., catalog no 850757), 7.6 mM PIP2 (suspended in 20 mM Hepes, pH 7) and 5.4 mM PC (Avanti catalog no 850457). The labeled choline/lipid mixture was sonicated and vortexed until the lipids are dissolved. Sf9 cells were plated onto large flasks (30×10^6 cells/flask) and left to adhere. Once adhered, medium was removed and the cells were infected with virus (at 1:5 or 1:10) for 1 hour with gentle rocking. After that time, virus was removed and fresh medium added, and the cells left to grow for 48 hours at 27 C. Medium was removed from the flask and the cells were washed once with PBS and then lysed in 5 ml lysis buffer (25 mM Tris, 5 mM EDTA, pH 7.5). Cells were scraped out of the flask, placed on ice, sonicated for 10 seconds and centrifuged in a […] centrifuge for 10 minutes at 700 rpm. Supernatant was removed and spun at 30,000 rpm for 60 minutes. Supernatant from this second centrifugation was then removed, and the pellet was resuspended in 0.5 ml lysis buffer, votexed and allowed to settle out.
For the assay, the resulting supernatant containing PLD1 enzyme (1-10 ml) was combined with G-protein(s), 20 ml assay buffer (30 mM Na-Hepes, pH 7.5, 3 mM EGTA, 80 mM KCl, 1 mM DTT, 3.0 mM MgCl2 and 2.0 mM CaCl2) and 10 mM Hepes to make a total volume of 50 ml. 50 ml of the labeled lipid mixture was added, vortexed thoroughly, and incubated at 37 C. for 30 minutes. The reaction was stopped by adding 200 ml of 10% TCA and 100 ml of 10 mg/ml BSA and centrifugation for 5 minutes at 10,000 rpm. […] of the supernatant was removed and counted in 2 ml of scintillation fluid using a LKB scintillation counter for 60 seconds. This was the basic assay used for the following experiments; any modifications were as described below.
To investigate the dependence of enzyme activity on calcium and magnesium, the concentrations of calcium and magnesium ions of the assay medium were varied. For some assays the lipid component of the vesicles was altered. Ptdins (4,5)P2 was purified from a lipid extract of bovine brain as described in Hammond, supra. Synthetic Ptdins (3,4,5)P3 was obtained from Glenn Prestwich, Dept. of Chemistry, SUNY Stony Brook. [^32P]-labeled phospholipids were isolated from extracts of U937 cells labeled overnight with [^32P] PO4 2- as described in Hammond, supra.
Vesicles containing 7% acidic lipid in a background of PE/PS were employed in the foregoing assay. The lipids tested were PI(4,5)P2, PI(3,4,5)P3, PI4P and PI.
ARF-stimulated PLD1activity was determined as the free concentrations of these ions were varied in the assay medium. PLD1 activity was insensitive to changes in Ca^2+ concentration over a side range (<10^−8 M to 10^−2 M). By contrast, ARF-stimulated PLD1 activity was dependent on Mg^2+ with half-maximal activity observed at approximately 10^−4 M.
PLD1 was incubated with increasing concentrations of purified GTP S-activated ARF1(ADP-ribosylation factor 1), RhoA, Rac1 and cdc42. […] RhoA and Rac1 stimulated the enzyme approximately 10- and 13-fold respectively and cdc42 produced an approximately 5-fold activation. Effects of ARF and Rac1 were clearly saturable and, although the concentrations of purified RhoA and cdc42 obtained limited the final concentrations achieved in the assay, at the highest concentrations used, effects of these activators also appeared to be approaching saturation. Activation of PLD1 by these G-proteins was strictly dependent on GTP S. […]

A further assay relates to HL-60 cells. In words: RT-PCR quantification of hPLD2 during dbcAMP-induced HL-60 cell differentiation. Type of assay: cell-based, human. Particulars: 0.5 mM dbcAMP. How it is done: From the data of Example 7, it was known that a human analog of mPLD2 existed. mPLD2 primers were made from the expressed sequence tags existing in GenBank. To analyze changes in the levels of hPLD2 activity during HL-60 cell differentiation induced by dcbAMP, HL-60 cells maintained in RPMI-1640 medium supplemented with 10% fetal bovine serum, 100 units.ml penicillin and 100 µg/ml streptomycin in a humidified atmosphere containing 5% CO2, at 37 C. were grown in RPMI-1640 medium without fetal bovine serum for 24 hours. Differentiation was initiated by the addition of 0.5 mM dbcAMP. Levels of hPLD2 were quantified later by RT-PCR. Total RNA was isolated from the HL-60 cells at the exponential growth stage by the acid guanidine thiocyanate method following the protocol of Chomczynski, Anal. Biochem. 162:156-62(1992). Two g of RNA was reverse transcribed by using random hexamer mixed primers. The number of amplification cycles were determined to individual primer sets in order to maintain exponential rate of product amplification. Amplified DNA fragments were subjected to electrophoresis on 1.5% agarose gel and visualized by ethidium bromide staining. The intensity of bands was quantified by a densitometer (Atto Densitograph, Tokyo, Japan). Primer E (Forward):
5′[…] 3′. Primer F (reverse):
5′[…] 3′. Amplification conditions used were 94 C. for 30 seconds, 60 C. for 1 minute, and 72 C. for 1 minute; 25-27 cycles.

As for `[Ca+2]` [Ca^2+], the “sensitivity of PLD1 activity to ion concentration” value in the assay on PLD1 (ARF-stimulated, <10^−8 M to 10^−2 M) is listed as “insensitive”.
For the compound phosphotidylinositol [PI], in the assay on PLD1, the “stimulation of PLD1 activity by lipid” value was “Only PI(4,5)P2 and PI(3,4,5)P3 stimulated”.
On to “ARF1: Human ARF1, bacterially-expressed and purified G-protein, GTP S-activated”, for which, in the assay with PLD1 (GTP S-activated G-protein, increasing concentrations), the “stimulation of PLD1 (maximal, concentration series)” value was “approximately 50 fold”. In the assay on PLD1 (maximally effective concentration: ARF1 4.7 M, RhoA 3.8 M, Rac1 5.3 M, cdc42 5.5 M, PKC- 0.043 M), the “activation of PLD1 by activator alone” value turned out to be 49 fold. Moreover, in the assay with PLD1 (plus maximally effective PKC-), the “activation of PLD1 over basal combined with PKC-” value is on record as 145 fold.
For `CCCCCCCCCCCCCC(=O)O[C@@H]1[C@@H](C)[C@@]2(O)[C@@H](C=C(CO)C[C@]3(O)C(=O)C(C)=C[C@@H]23)[C@@H]2C(C)(C)[C@]12OC(C)=O` [PMA, phorbolmyristate acetate], the “increase in potency with which PKC- stimulated PLD1” value in the assay on PLD1 (100 mM PMA in assay medium) is listed as “approximately 10 fold”. Moreover, the “increase in maximal effect of PKC- on PLD1” value with PLD1 (PMA in assay medium) is given as “approximately 1.5 fold”.
Regarding hPLD2: human analog of mPLD2, the “increase in level (printed as activity) on day 1” value in the assay on HL-60 cells (day 1, RT-PCR) is “approximately 8 fold”. Moreover, in the assay on HL-60 cells (day 2, RT-PCR), the “increase in level (printed as activity) on day 2” value is “approximately 12 fold”. The “increase in level (printed as activity) on day 3” value in the assay on HL-60 cells (day 3, RT-PCR) is reported as “approximately 20 fold”.
Turning to phosphotidylinositol 4-phosphate [PI4P], in the assay with PLD1, the “stimulation of PLD1 activity by lipid” value is “Only PI(4,5)P2 and PI(3,4,5)P3 stimulated”.
Take PI(3,4,5)P3: in the assay on PLD1, the “lipid content giving maximal activation of PLD1” value is given as “approximately 7%” and the “stimulation of PLD1 activity by lipid” value was “stimulated”.
As to `O=P(O)(O)O[C@@H]1[C@H](O)[C@H](O)[C@@H](OP(=O)(O)O)[C@H](OP(=O)(O)O)[C@H]1O` [inositol 1,4,5 trisphosphate], in the assay with PLD1 (soluble, concentrations up to […]), the “activation of PLD1 or block of activation by PI(4,5)P2 or PI(3,4,5)P3” value is “neither activated PLD1 nor blocked activation”.
In the case of PI(4,5)P2, in the assay on PLD1, the “lipid content giving maximal activation of PLD1” value is recorded as “approximately 7%” and the “stimulation of PLD1 activity by lipid” value is listed as “stimulated”.
For `[Mg+2]` [Mg^2+], the EC50 in the assay on PLD1 (ARF-stimulated PLD1, free ion concentration, read-out: concentration for half-maximal ARF-stimulated PLD1 activity) is roughly 100 µM.
